According to ChEMBL document CHEMBL1149340, “Optimization and SAR for dual ErbB-1/ErbB-2 tyrosine kinase inhibition in the 6-furanylquinazoline series” (Bioorg Med Chem Lett, 2006):

Tests used:
BT-474 = assay: Inhibition of BT474 cell growth after 72 hrs; type: functional, cell-based; settings: Homo sapiens, BT-474, 72 h
[1] = molecular target: Receptor tyrosine-protein kinase erbB-2 (Homo sapiens, UniProt P04626)
[2] = molecular target: Epidermal growth factor receptor (Homo sapiens, UniProt P00533)
Chain of Epidermal growth factor receptor (P00533 whole entry): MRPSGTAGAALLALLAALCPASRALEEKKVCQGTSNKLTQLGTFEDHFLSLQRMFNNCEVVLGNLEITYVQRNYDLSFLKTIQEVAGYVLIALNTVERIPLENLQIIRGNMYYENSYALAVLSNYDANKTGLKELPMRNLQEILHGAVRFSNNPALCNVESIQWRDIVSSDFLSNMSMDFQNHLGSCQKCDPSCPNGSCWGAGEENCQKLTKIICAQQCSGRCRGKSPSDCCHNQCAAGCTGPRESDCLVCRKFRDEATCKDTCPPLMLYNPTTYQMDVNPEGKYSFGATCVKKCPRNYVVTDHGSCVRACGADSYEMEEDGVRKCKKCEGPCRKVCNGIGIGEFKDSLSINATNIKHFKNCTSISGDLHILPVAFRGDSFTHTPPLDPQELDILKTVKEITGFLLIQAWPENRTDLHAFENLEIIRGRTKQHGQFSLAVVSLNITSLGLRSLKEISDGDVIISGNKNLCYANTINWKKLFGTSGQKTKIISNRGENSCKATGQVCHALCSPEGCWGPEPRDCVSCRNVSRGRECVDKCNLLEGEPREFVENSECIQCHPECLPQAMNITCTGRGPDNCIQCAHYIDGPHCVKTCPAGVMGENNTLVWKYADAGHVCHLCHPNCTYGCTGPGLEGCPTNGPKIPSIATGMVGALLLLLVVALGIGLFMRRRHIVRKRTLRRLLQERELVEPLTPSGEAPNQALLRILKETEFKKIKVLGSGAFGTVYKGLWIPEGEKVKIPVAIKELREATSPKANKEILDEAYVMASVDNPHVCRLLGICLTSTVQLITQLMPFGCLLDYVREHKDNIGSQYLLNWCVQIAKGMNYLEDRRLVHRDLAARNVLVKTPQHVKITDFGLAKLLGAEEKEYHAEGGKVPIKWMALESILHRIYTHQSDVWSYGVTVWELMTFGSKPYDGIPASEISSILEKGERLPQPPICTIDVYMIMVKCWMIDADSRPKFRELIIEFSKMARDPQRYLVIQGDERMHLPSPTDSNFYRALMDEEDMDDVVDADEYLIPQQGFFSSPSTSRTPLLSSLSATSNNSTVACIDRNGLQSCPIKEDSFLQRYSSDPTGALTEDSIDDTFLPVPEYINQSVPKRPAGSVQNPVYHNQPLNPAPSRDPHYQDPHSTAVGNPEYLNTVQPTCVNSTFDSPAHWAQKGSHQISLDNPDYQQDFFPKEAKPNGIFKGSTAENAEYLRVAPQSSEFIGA

NCI-N87 = assay: Inhibition of N87 cell growth after 72 hrs; type: functional, cell-based; settings: Homo sapiens, NCI-N87, 72 h
HN5 = assay: cells; settings: Homo sapiens, HN5, 72 h
Description: Inhibition of HN5 cell growth after 72 hrs

HFF = assay: Inhibition of HFF cell growth; settings: Homo sapiens

Chain of Receptor tyrosine-protein kinase erbB-2 (P04626 whole entry): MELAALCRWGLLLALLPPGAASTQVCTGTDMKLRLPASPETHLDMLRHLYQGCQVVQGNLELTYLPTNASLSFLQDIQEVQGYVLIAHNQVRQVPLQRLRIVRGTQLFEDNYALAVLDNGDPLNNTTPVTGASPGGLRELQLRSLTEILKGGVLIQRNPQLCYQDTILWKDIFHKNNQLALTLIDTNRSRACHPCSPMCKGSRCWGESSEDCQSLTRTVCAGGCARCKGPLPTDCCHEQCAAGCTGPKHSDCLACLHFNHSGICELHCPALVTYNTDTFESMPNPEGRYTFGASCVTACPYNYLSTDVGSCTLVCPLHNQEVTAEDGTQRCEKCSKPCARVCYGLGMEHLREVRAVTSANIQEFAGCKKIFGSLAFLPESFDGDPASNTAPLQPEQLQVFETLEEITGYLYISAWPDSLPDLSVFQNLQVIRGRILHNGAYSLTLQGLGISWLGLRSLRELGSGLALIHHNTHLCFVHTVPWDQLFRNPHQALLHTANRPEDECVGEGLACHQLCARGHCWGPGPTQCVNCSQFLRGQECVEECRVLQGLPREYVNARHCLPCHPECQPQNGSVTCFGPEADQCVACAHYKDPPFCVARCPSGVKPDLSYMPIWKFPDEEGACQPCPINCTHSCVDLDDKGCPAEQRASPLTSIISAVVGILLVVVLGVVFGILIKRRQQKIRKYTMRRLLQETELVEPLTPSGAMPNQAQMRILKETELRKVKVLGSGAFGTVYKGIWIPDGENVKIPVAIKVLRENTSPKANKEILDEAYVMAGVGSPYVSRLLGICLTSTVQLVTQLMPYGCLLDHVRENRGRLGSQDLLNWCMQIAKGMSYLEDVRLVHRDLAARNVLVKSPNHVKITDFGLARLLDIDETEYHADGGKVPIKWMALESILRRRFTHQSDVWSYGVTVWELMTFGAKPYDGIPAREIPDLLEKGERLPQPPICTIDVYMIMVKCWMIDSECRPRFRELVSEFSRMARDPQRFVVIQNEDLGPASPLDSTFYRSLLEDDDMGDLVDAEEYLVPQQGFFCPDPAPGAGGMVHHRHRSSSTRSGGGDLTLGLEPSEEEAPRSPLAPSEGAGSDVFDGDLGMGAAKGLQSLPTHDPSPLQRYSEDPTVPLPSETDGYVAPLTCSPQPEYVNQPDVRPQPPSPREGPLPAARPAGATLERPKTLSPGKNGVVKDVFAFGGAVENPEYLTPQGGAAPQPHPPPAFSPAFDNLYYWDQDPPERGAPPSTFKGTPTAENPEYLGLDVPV

SMILES | IC50 (BT-474) | IC50 [1] | IC50 [2] | IC50 (NCI-N87) | IC50 (HN5) | IC50 (HFF)
CS(=O)(=O)CCN(Cc1ccccc1)Cc1ccc(-c2ccc3ncnc(Nc4ccc(OCc5cccc(F)c5)c(Cl)c4)c3c2)o1 | 610 nM | 141 nM |  |  |  | 
O=S(=O)(CCOCc1ccc(-c2ccc3ncnc(Nc4ccc(OCc5cccc(F)c5)c(Cl)c4)c3c2)o1)c1ccccc1 [GW615311X] |  | 28 nM | 25 nM |  |  | 
[O-][S+]1CCN(Cc2ccc(-c3ccc4ncnc(Nc5ccc(OCc6cccc(F)c6)c(Cl)c5)c4c3)o2)CC1 | 100 nM | 18 nM | 28 nM | 80 nM | 60 nM | 8180 nM
CS(=O)(=O)CCNCc1ccc(-c2ccc3ncnc(Nc4ccc(OCc5cccc(F)c5)cc4)c3c2)o1 | 770 nM | 31 nM | 24 nM | 860 nM | 840 nM | 
CS(=O)(=O)CCNCc1ccc(-c2ccc3ncnc(Nc4ccc(OCc5cccc(Br)c5)cc4)c3c2)o1 | 2130 nM | 100 nM | 43 nM | 3460 nM | 2560 nM | 
CS(=O)(=O)CCN(CC#N)Cc1ccc(-c2ccc3ncnc(Nc4ccc(OCc5cccc(F)c5)c(Cl)c4)c3c2)o1 [GW616030X] | 67 nM | 22 nM | 27 nM |  |  | > 30000 nM
CC(C)S(=O)(=O)CCNCc1ccc(-c2ccc3ncnc(Nc4ccc(OCc5cccc(F)c5)c(Cl)c4)c3c2)o1 | 200 nM | 24 nM |  | 130 nM |  | > 30000 nM
O=S(=O)(CCCCNCc1ccc(-c2ccc3ncnc(Nc4ccc(OCc5ccccc5)c(Cl)c4)c3c2)o1)c1ccccc1 |  | 38 nM | 50 nM |  |  | 
CS(=O)(=O)CCNCc1ccc(-c2ccc3ncnc(Nc4ccc(OCc5ccccc5)c(C(F)(F)F)c4)c3c2)o1 | 10100 nM | 200 nM | 160 nM | 6500 nM | 5900 nM | 
CS(=O)(=O)CCNCc1ccc(-c2ccc3ncnc(Nc4ccc(OCc5cccc(F)c5)c(Cl)c4)c3c2)o1 [LAPATINIB] | 80 nM |  |  | 80 nM |  | 9900 nM
CCCS(=O)(=O)CCNCc1ccc(-c2ccc3ncnc(Nc4ccc(OCc5cccc(F)c5)c(Cl)c4)c3c2)o1 | 3140 nM | 26 nM | 21 nM | 8660 nM | 1600 nM | 
CS(=O)(=O)CCOCc1ccc(-c2ccc3ncnc(Nc4ccc(OCc5cccc(F)c5)c(Cl)c4)c3c2)o1 | 170 nM | 17 nM | 26 nM |  |  | > 30000 nM
CS(=O)(=O)CCNCc1ccc(-c2ccc3ncnc(Nc4ccc(OCc5ccccc5)c(Cl)c4)c3c2)o1 | 250 nM | 22 nM | 18 nM | 280 nM | 250 nM | 
COc1cc(Nc2ncnc3ccc(-c4ccc(CNCCS(C)(=O)=O)o4)cc23)ccc1OCc1cccc(F)c1 | 2070 nM |  |  | 1900 nM |  | 
O=S(=O)(CCNCc1ccc(-c2ccc3ncnc(Nc4ccc(OCc5cccc(F)c5)c(Cl)c4)c3c2)o1)c1ccccc1 | 1040 nM | 30 nM | 19 nM | 870 nM | 1070 nM | 
CCCN(CCS(C)(=O)=O)Cc1ccc(-c2ccc3ncnc(Nc4ccc(OCc5cccc(F)c5)c(Cl)c4)c3c2)o1 | 250 nM | 20 nM | 85 nM |  |  | 
CS(=O)(=O)CCNCc1ccc(-c2ccc3ncnc(Nc4ccc(OCc5ccccc5)c(Br)c4)c3c2)o1 | 270 nM |  |  | 370 nM |  | 
[O-][S+]1CCN(Cc2ccc(-c3ccc4ncnc(Nc5ccc(OCc6ccccc6)c(Cl)c5)c4c3)o2)CC1 | 420 nM | 23 nM | 12 nM | 460 nM | 320 nM | 
[O-][S+]1CCN(Cc2ccc(-c3ccc4ncnc(Nc5ccc(OCc6ccccc6)c(F)c5)c4c3)o2)CC1 | 1200 nM | 35 nM | 16 nM | 1130 nM | 1000 nM | 
[O-][S+]1CCN(Cc2ccc(-c3ccc4ncnc(Nc5ccc(OCc6cccc(F)c6)c(C(F)(F)F)c5)c4c3)o2)CC1 | 3000 nM | 141 nM | 89 nM | 2090 nM | 1110 nM | 
CS(=O)(=O)CCNCc1ccc(-c2ccc3ncnc(Nc4ccc(OCc5cccc(C(F)(F)F)c5)cc4)c3c2)o1 | 4200 nM | 360 nM | 91 nM | 5200 nM | 6900 nM | 
CS(=O)(=O)CCNCc1ccc(-c2ccc3ncnc(Nc4ccc(OCc5ccccc5)cc4)c3c2)o1 | 280 nM | 26 nM | 27 nM | 870 nM | 650 nM | 
CS(=O)(=O)CCNCc1ccc(-c2ccc3ncnc(Nc4ccc(OCc5cccc(F)c5)c(C(F)(F)F)c4)c3c2)o1 [GW576484X] | 4490 nM | 220 nM | 80 nM | 2890 nM | 1940 nM | 
